ChEMBL document CHEMBL1201862, “PubChem BioAssay data set” (2004)
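A five-concentration, 48-hour dose response in 96-well plates underlies each endpoint, interpolated linearly between surrounding concentrations. GI50 marks 50% less growth.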 Calls of active or inactive are those of the source. Cut-off read from the data, not from the text of the source: active = GI50 up to about 1.1 µM and inactive = higher.

Assays:
Assay in all cases: NCI anticancer screen, dose series, 48 h
K562 = test system: K562
PC-3 = test system: PC-3
OVCAR-8 = test system: OVCAR-8
A549 = test system: A549
SF-539 = test system: SF-539
MDA-MB-435 = test system: MDA-MB-435
RPMI-8226 = test system: RPMI-8226
U-251 = test system: U-251
OVCAR-5 = test system: OVCAR-5
EKVX = test system: EKVX
HOP-62 = test system: HOP-62
MDA-N = test system: MDA-N
SNB-75 = test system: SNB-75
MOLT-4 = test system: MOLT-4
NCI/ADR-RES = test system: NCI/ADR-RES
T47D = test system: T47D
RXF 393 = test system: RXF 393
HCC 2998 = test system: HCC 2998
BT-549 = test system: BT-549

Row | SMILES | GI50 (K562) | GI50 (PC-3) | GI50 (OVCAR-8) | GI50 (A549) | GI50 (SF-539) | GI50 (MDA-MB-435) | GI50 (RPMI-8226) | GI50 (U-251) | GI50 (OVCAR-5) | GI50 (EKVX) | GI50 (HOP-62) | GI50 (MDA-N) | GI50 (SNB-75) | GI50 (MOLT-4) | GI50 (NCI/ADR-RES) | GI50 (T47D) | GI50 (RXF 393) | GI50 (HCC 2998) | GI50 (BT-549)
1 | CC(=O)Oc1cc2oc(=O)cc(C)c2cc1OC(C)=O | 55.7 µM (inactive) | 84.9 µM (inactive) | 32.2 µM (inactive) | 37.3 µM (inactive) | 31.3 µM (inactive) | 48.4 µM (inactive) | 45.7 µM (inactive) | 51.1 µM (inactive) | > 100 µM (inactive) | 52.5 µM (inactive) | 51.8 µM (inactive) | > 100 µM (inactive) | 48.4 µM (inactive) | 74.8 µM (inactive) | 32.4 µM (inactive) | – | – | – | –
2 | c1ccc2c3c([nH]c2c1)C1CCCN1CC3 (stereo unspecified) | > 10 µM (inactive) | > 10 µM (inactive) | > 10 µM (inactive) | – | > 10 µM (inactive) | > 10 µM (inactive) | > 10 µM (inactive) | > 10 µM (inactive) | > 10 µM (inactive) | > 10 µM (inactive) | > 10 µM (inactive) | > 10 µM (inactive) | > 10 µM (inactive) | > 10 µM (inactive) | > 10 µM (inactive) | > 10 µM (inactive) | > 10 µM (inactive) | > 10 µM (inactive) | –
3 | COC(C(=O)NN)c1ccccc1 (stereo unspecified) | > 100 µM (inactive) | > 100 µM (inactive) | > 100 µM (inactive) | > 100 µM (inactive) | > 100 µM (inactive) | > 100 µM (inactive) | > 100 µM (inactive) | > 100 µM (inactive) | > 100 µM (inactive) | > 100 µM (inactive) | > 100 µM (inactive) | > 100 µM (inactive) | 27.8 µM (inactive) | > 100 µM (inactive) | > 100 µM (inactive) | – | > 100 µM (inactive) | > 100 µM (inactive) | > 100 µM (inactive)
4 | C[N+](C)=c1nc(N2CCOCC2)ss1 | > 100 µM (inactive) | – | > 100 µM (inactive) | 47.3 µM (inactive) | > 100 µM (inactive) | – | – | > 100 µM (inactive) | > 100 µM (inactive) | > 100 µM (inactive) | > 100 µM (inactive) | – | – | > 100 µM (inactive) | – | – | > 100 µM (inactive) | > 100 µM (inactive) | –
5 | O=C(Cn1c(=O)oc2ccccc21)N(c1ccccc1)c1ccccc1 | > 100 µM (inactive) | > 100 µM (inactive) | 52.8 µM (inactive) | – | 88.9 µM (inactive) | > 100 µM (inactive) | > 100 µM (inactive) | 95.1 µM (inactive) | > 100 µM (inactive) | 11.9 µM (inactive) | > 100 µM (inactive) | > 100 µM (inactive) | 11.5 µM (inactive) | > 100 µM (inactive) | 77.6 µM (inactive) | – | > 100 µM (inactive) | – | > 100 µM (inactive)
6 | CC(C)CCc1n[nH]c(=O)n1/N=C\c1ccccc1 | 83 µM (inactive) | – | > 100 µM (inactive) | > 100 µM (inactive) | > 100 µM (inactive) | > 100 µM (inactive) | – | > 100 µM (inactive) | > 100 µM (inactive) | > 100 µM (inactive) | > 100 µM (inactive) | > 100 µM (inactive) | > 100 µM (inactive) | 67.8 µM (inactive) | 57.4 µM (inactive) | > 100 µM (inactive) | > 100 µM (inactive) | > 100 µM (inactive) | –
7 | CC(C)OC(=O)C1=C2c3ncccc3C(=O)N2[C@@H](Cl)[C@@H](Cl)[C@@H]1Cl | 33.4 µM (inactive) | > 100 µM (inactive) | 39.8 µM (inactive) | > 100 µM (inactive) | > 100 µM (inactive) | > 100 µM (inactive) | 29.8 µM (inactive) | > 100 µM (inactive) | > 100 µM (inactive) | > 100 µM (inactive) | > 100 µM (inactive) | 74.1 µM (inactive) | – | 31.8 µM (inactive) | > 100 µM (inactive) | – | > 100 µM (inactive) | > 100 µM (inactive) | > 100 µM (inactive)
8 | CC(=O)O[C@@H]1CN(S(=O)(=O)c2ccc(C)cc2)C[C@@H]1C1CCCCC1 | 45.7 µM (inactive) | 18.3 µM (inactive) | 24.8 µM (inactive) | – | < 0.01 µM (active) | 18.7 µM (inactive) | 25.5 µM (inactive) | 17.7 µM (inactive) | 26.7 µM (inactive) | 19.9 µM (inactive) | 21.9 µM (inactive) | 17.1 µM (inactive) | 19.8 µM (inactive) | 25.5 µM (inactive) | 20.6 µM (inactive) | 31.8 µM (inactive) | – | 42.5 µM (inactive) | –
9 | CC1(C)CC[C@]2(C(=O)O)CC[C@]3(C)C(=CC[C@@H]4[C@@]5(C)CC[C@@H]6OC(C)(C)OC[C@@]6(C)[C@@H]5CC[C@]43C)[C@H]2C1 | 14.9 µM (inactive) | 5.4 µM (inactive) | 7.64 µM (inactive) | – | 15.1 µM (inactive) | 8.55 µM (inactive) | 6 µM (inactive) | 5.89 µM (inactive) | 16.8 µM (inactive) | 5.08 µM (inactive) | 10.1 µM (inactive) | 13.3 µM (inactive) | 11 µM (inactive) | 11.5 µM (inactive) | 16.9 µM (inactive) | 13.9 µM (inactive) | – | 13.2 µM (inactive) | –
10 | O=c1c(Cl)c(Cl)c(=O)c2sc3cc(Cl)ccc3[nH]c1=2 | 15.5 µM (inactive) | 32.6 µM (inactive) | 14.5 µM (inactive) | > 100 µM (inactive) | 43 µM (inactive) | 34 µM (inactive) | 4 µM (inactive) | 31.4 µM (inactive) | 29.6 µM (inactive) | 14 µM (inactive) | > 100 µM (inactive) | – | 47.4 µM (inactive) | 2.47 µM (inactive) | 5.36 µM (inactive) | 25.9 µM (inactive) | 66.4 µM (inactive) | – | 2.81 µM (inactive)
11 | COc1cc(C2SCC(=O)N2c2ccccc2Cl)cc(OC)c1OC (stereo unspecified) | > 100 µM (inactive) | > 100 µM (inactive) | > 100 µM (inactive) | > 100 µM (inactive) | > 100 µM (inactive) | 23.7 µM (inactive) | 90.2 µM (inactive) | > 100 µM (inactive) | > 100 µM (inactive) | > 100 µM (inactive) | – | 19.4 µM (inactive) | – | – | 88.5 µM (inactive) | – | – | > 100 µM (inactive) | 54 µM (inactive)
12 | C=C[C@H]1CC[C@H]2[C@@H]3CC=C4C[C@@H](OC5OCC(O)C(O)C5O)CC[C@]4(C)[C@H]3CC[C@]12C (stereo partly specified) | 25.8 µM (inactive) | 14.3 µM (inactive) | 16.3 µM (inactive) | 12.9 µM (inactive) | 14.9 µM (inactive) | 15.9 µM (inactive) | 81.7 µM (inactive) | 14.9 µM (inactive) | 11.7 µM (inactive) | – | 18 µM (inactive) | 17.6 µM (inactive) | – | 46.6 µM (inactive) | 15.9 µM (inactive) | 14.3 µM (inactive) | – | – | –
13 | COc1ccc(CN(Cc2ccc(OC)cc2)C(=O)CC2(O)CCc3ccccc3C2)cc1 (stereo unspecified) | > 100 µM (inactive) | 17.2 µM (inactive) | 37 µM (inactive) | 30.1 µM (inactive) | > 100 µM (inactive) | 34.8 µM (inactive) | 62.2 µM (inactive) | 63.1 µM (inactive) | > 100 µM (inactive) | 37.5 µM (inactive) | > 100 µM (inactive) | – | 30.1 µM (inactive) | 7.89 µM (inactive) | 12.9 µM (inactive) | 8.71 µM (inactive) | – | 68.9 µM (inactive) | > 100 µM (inactive)
14 | C=CCn1c(=O)c(C(=O)Nc2nc(C34CC5CC(CC(C5)C3)C4)cs2)c(O)c2ccccc21 | 15.1 µM (inactive) | 43.4 µM (inactive) | 82.8 µM (inactive) | 18.2 µM (inactive) | 60.8 µM (inactive) | 63.4 µM (inactive) | 20.1 µM (inactive) | 50.2 µM (inactive) | 91.6 µM (inactive) | 30.5 µM (inactive) | 30.6 µM (inactive) | 48.6 µM (inactive) | > 100 µM (inactive) | 27.4 µM (inactive) | 15 µM (inactive) | – | 31.6 µM (inactive) | 37.5 µM (inactive) | 24.4 µM (inactive)
15 | COc1ccc2cc(NC(=O)Nn3cnnc3)ccc2c1 | > 100 µM (inactive) | > 100 µM (inactive) | > 100 µM (inactive) | > 100 µM (inactive) | > 100 µM (inactive) | > 100 µM (inactive) | > 100 µM (inactive) | > 100 µM (inactive) | > 100 µM (inactive) | 80.7 µM (inactive) | > 100 µM (inactive) | > 100 µM (inactive) | 12.7 µM (inactive) | > 100 µM (inactive) | – | > 100 µM (inactive) | – | > 100 µM (inactive) | > 100 µM (inactive)
16 | Fc1ccc(/N=N/N2CCCC2)cc1 | 4.66 µM (inactive) | – | – | > 100 µM (inactive) | > 100 µM (inactive) | 37.2 µM (inactive) | 22.3 µM (inactive) | > 100 µM (inactive) | > 100 µM (inactive) | > 100 µM (inactive) | > 100 µM (inactive) | 32.4 µM (inactive) | – | 32.1 µM (inactive) | – | 19.2 µM (inactive) | > 100 µM (inactive) | 15.5 µM (inactive) | 41.8 µM (inactive)
17 | CC(=O)O[C@H]1CC2C(C3CCC(C(C)CCC(=O)O)[C@]31C)[C@H](OC(C)=O)C[C@@H]1CC3(CC[C@]21C)OOC1(CC[C@]2(C)C4C[C@H](OC(C)=O)[C@]5(C)C(C(C)CCC(=O)O)CCC5C4[C@H](OC(C)=O)C[C@@H]2C1)OO3 (stereo partly specified) | 2.44 µM (inactive) | 1.69 µM (inactive) | 1.66 µM (inactive) | 1.27 µM (inactive) | – | 1.94 µM (inactive) | 2.76 µM (inactive) | 1.28 µM (inactive) | 1.78 µM (inactive) | 2.81 µM (inactive) | 1.83 µM (inactive) | 2.31 µM (inactive) | 1.3 µM (inactive) | 2.03 µM (inactive) | 2.63 µM (inactive) | – | 1.36 µM (inactive) | 2.03 µM (inactive) | 1.56 µM (inactive)
